Consider 20 molecules from publication PMC7670487 (ACS Infectious Diseases, 2020).

The subject of series [1] is T. cruzi (Y strain) trypomastigotes. The experiment in a line: Antitrypomastigote assay (resazurin viability). The format is cell-based. The settings on record: Trypanosoma cruzi, LLC-MK2-derived trypomastigotes, 24 h incubation, up to 100 μM, read-out: IC50 (μM) ± SD trypomastigote. The protocol:
Our attention next turned to an evaluation of the activity of the various natural product analogues against T. cruzi amastigotes (evaluated microscopically using an ex vivo intracellular model with mice macrophages)[20] and trypomastigotes (resazurin in vitro assay).[30] […] Macrophages were collected from the peritoneal cavity of BALB/c mice by washing them with RPMI-1640 medium supplemented with 10% fetal calf serum and were maintained at 37 °C in a 5% CO2 humidified incubator. Trypomastigotes of T. cruzi (Y strain) were maintained in Rhesus monkey kidney cells (LLC-MK2, ATCC CCL 7) and cultivated in RPMI-1640 medium supplemented with 2% fetal calf serum at 37 °C in a 5% CO2 humidified incubator. Murine conjunctive cells (NCTC clone 929, ATCC) were maintained in RPMI-1640 supplemented with 10% FBS at 37 °C in a 5% CO2 humidified incubator.[20] LLC-MK2-derived trypomastigotes were seeded (1 × 10^6 cells/well) in 96-well plates and incubated with the compounds serially diluted 2-fold (up to 100 μM) for 24 h in RPMI 1640 medium at 37 °C in a 5% CO2 humidified incubator. Subsequently, resazurin (0.011% in PBS) was added for 24 h to check the parasite viability.[30] The optical density was determined in the FilterMax F5 (Molecular Devices) at 570 nm. Benznidazole was used as the standard. IC50 and CC50 values were calculated using a sigmoid dose–response curve in GraphPad Prism 6.0 software (GraphPad Software, San Diego, CA, USA). The assays were repeated at least twice, and the samples were tested in duplicate.
(Resazurin is reduced to fluorescent resorufin, in cell work by metabolically active cells.)

A short description of series [2]: Cytotoxicity against mammalian cells (MTT). In kind it is cell-based, murine. The following applies: mouse, NCTC clone 929 fibroblast cells; NCTC clone 929 cells, 48 h, 200–1.56 μM, MTT. The protocol: (§1) Macrophages were collected from the peritoneal cavity of BALB/c mice by washing them with RPMI-1640 medium supplemented with 10% fetal calf serum and were maintained at 37 °C in a 5% CO2 humidified incubator. Trypomastigotes of T. cruzi (Y strain) were maintained in Rhesus monkey kidney cells (LLC-MK2, ATCC CCL 7) and cultivated in RPMI-1640 medium supplemented with 2% fetal calf serum at 37 °C in a 5% CO2 humidified incubator. Murine conjunctive cells (NCTC clone 929, ATCC) were maintained in RPMI-1640 supplemented with 10% FBS at 37 °C in a 5% CO2 humidified incubator.[20] […] The selectivity index (SI) was determined as CC50/IC50 against amastigotes. IC50 and CC50 values were calculated using a sigmoid dose–response curve in GraphPad Prism 6.0 software (GraphPad Software, San Diego, CA, USA). The assays were repeated at least twice, and the samples were tested in duplicate.

For series [3], the system named is Fibroblast NCTC cells (clone 929). Description: Cytotoxicity against mammalian cells (MTT). The format is cell-based, murine. The following applies: for SI (selectivity index): ratio between CC50 in NCTC cells and IC50 in intracellular amastigotes; for CC50 (μM) ± SD: NCTC clone 929 cells, 48 h, 200–1.56 μM, MTT. The protocol:
as §1

Series [4] concerns T. cruzi amastigotes. The experiment in a line: Antiamastigote assay (intracellular, infected peritoneal macrophages, infection index by microscopy). The format is cell-based, Trypanosoma cruzi. The following applies: for IC50: Trypanosoma cruzi, Peritoneal macrophage, in Mus musculus, intracellular amastigotes in BALB/c peritoneal macrophages, 48 h, 30–0.23 μM, read-out: IC50 (μM) ± SD amastigote. The protocol: Our attention next turned to an evaluation of the activity of the various natural product analogues against T. cruzi amastigotes (evaluated microscopically using an ex vivo intracellular model with mice macrophages)[20] and trypomastigotes (resazurin in vitro assay).[30] […] Macrophages were collected from the peritoneal cavity of BALB/c mice by washing them with RPMI-1640 medium supplemented with 10% fetal calf serum and were maintained at 37 °C in a 5% CO2 humidified incubator. Trypomastigotes of T. cruzi (Y strain) were maintained in Rhesus monkey kidney cells (LLC-MK2, ATCC CCL 7) and cultivated in RPMI-1640 medium supplemented with 2% fetal calf serum at 37 °C in a 5% CO2 humidified incubator. Murine conjunctive cells (NCTC clone 929, ATCC) were maintained in RPMI-1640 supplemented with 10% FBS at 37 °C in a 5% CO2 humidified incubator.[20] Peritoneal macrophages (1 × 10^5 cells/well), collected from the peritoneal cavity of the BALB/c mice, were seeded in 16-well chamber slides (NUNC, Thermo Fisher Scientific) and infected with trypomastigotes (10:1, parasite/macrophage ratio). After 2 h, the compounds (in concentrations of 30–0.23 μM) were incubated with infected macrophages for 48 h at 37 °C in a 5% CO2 humidified incubator. The slides were fixed with MeOH, stained with Giemsa, and observed under a light microscope (EVOS M5000, Termo, USA) with digital image equipment. […] IC50 and CC50 values were calculated using a sigmoid dose–response curve in GraphPad Prism 6.0 software (GraphPad Software, San Diego, CA, USA). The assays were repeated at least twice, and the samples were tested in duplicate.

Series [5] concerns T. cruzi amastigotes. The settings on record: T. cruzi intracellular amastigotes; read-out: IC50 (μM) ± SD amastigote; cited from earlier work.
Series [6] deals with Fibroblast NCTC cells (clone 929). The settings on record: cited from earlier work.

SMILES strings stand for the structures. Like-named read-outs stand apart in the source and are kept apart here. Bounds are passed on as bounds.

In general, IC50 refers to the midpoint of a concentration-inhibition curve. As usually defined, the CC50 is the concentration giving 50% cytotoxicity. Regarding `C=CCc1ccc(Oc2cc(CC=C)cc(OC)c2OCOC)c(OC)c1` [Compound 5], the IC50 came to 6.5 ± 4.9 µM in series [1] and 24.4 ± 10.3 µM with T. cruzi amastigotes [4]. The molecule also had a CC50 at 48 h in series [2] greater than 200 µM. In addition, in series [3], the “SI (selectivity index)” value is given as greater than 8.2.
`C=CCc1ccc(Oc2cc(CC=C)cc(OC)c2OCc2ccc(OC)cc2)c(OC)c1` [Compound 6] displayed a CC50 at 48 h in series [2] greater than 200 µM. Moreover, the “SI (selectivity index)” value in series [3] was greater than 50. Further, the IC50 in the series with T. cruzi amastigotes [4] amounted to 4 ± 1.4 µM. In addition, in the series on T. cruzi amastigotes [4] (relative to compound 1, amastigote IC50), the “fold more potent than the natural product 1 against the amastigotes” value is recorded as “approximately 20 fold”.
For `CCCc1ccc(Oc2cc(CCC)cc(OC)c2OC)c(OC)c1` [Compound 9], the IC50 in the series with T. cruzi amastigotes [5] was 13.3 ± 1.2 µM. Also, the CC50 in series [6] (NCTC cells) is greater than 200 µM. The “SI (selectivity index)” value in series [6] (ratio between CC50 in NCTC cells and IC50 in intracellular amastigotes) is on record as greater than 15.0.
Molecule `CCCc1ccc(Oc2cc(CCC)cc(OC)c2OCc2ccc(OC)cc2)c(OC)c1` [Compound 10] had a CC50 at 48 h in series [2] greater than 200 µM. The “SI (selectivity index)” value in series [3] is listed as greater than 36.4. Besides, the IC50 in the series on T. cruzi amastigotes [4] is 5.5 ± 3.5 µM.
In the case of `C=CCc1cc(OC)c(OC)c(Oc2ccc(CCC)cc2OC)c1` [Compound 11], the results for the IC50 (in series [1]; with T. cruzi amastigotes [4]) were 21.9 ± 6.1 µM and 11.7 ± 7 µM, respectively. In addition, in series [2], the CC50 at 48 h was greater than 200 µM. Further, in series [3], the “SI (selectivity index)” value was greater than 17.1.
`C=CCc1cc(OC)c(OCc2ccc(OC)cc2)c(Oc2ccc(CCC)cc2OC)c1` [Compound 12] showed a CC50 at 48 h in series [2] greater than 200 µM. Also, in series [3], the “SI (selectivity index)” value is greater than 23.3. In the series on T. cruzi amastigotes [4], the IC50 was found to be 8.6 ± 2.1 µM.
`C=CCc1cc(OC)c(O)c(Oc2ccc(CCC)cc2OC)c1` [Compound 13]: the IC50 in series [1] turned out to be 7.6 ± 1.9 µM. In series [2], this molecule showed a CC50 at 48 h of 42 ± 3.8 µM. Also, in series [3], the “CC50 (μM) ± SD” value is “significant mammalian toxicity” and the “SI (selectivity index)” value was 2.5. For the same molecule, in the series on T. cruzi amastigotes [4], the IC50 turned out to be 16.6 ± 1 µM.
Consider `C=CCc1ccc(Oc2cc(CC=C)cc(OC)c2OCc2ccc(OC)cc2)cc1` [Compound 14], for which the CC50 at 48 h in series [2] was greater than 200 µM. Also, the “SI (selectivity index)” value in series [3] is given as greater than 18.2. Besides, the IC50 in the series with T. cruzi amastigotes [4] stood at 11 ± 2.3 µM.
In the case of `C=CCc1ccc(Oc2cc(CC=C)cc(OC)c2O)cc1` [Compound 15, 3-methylobovatol], the values for the IC50 (in series [1]; with T. cruzi amastigotes [4]) were 4.6 ± 3 µM and 22.5 ± 18.8 µM, respectively. This molecule also showed a CC50 at 48 h in series [2] of 123 ± 9.4 µM. Further, the “SI (selectivity index)” value in series [3] is listed as 5.5.
Turning to `C=CCc1cc(OC)c(OC)c(Oc2ccccc2OC)c1` [Compound 16], the IC50 in series [1] worked out at 20.3 ± 0.4 µM. This molecule also registered a CC50 at 48 h in series [2] greater than 200 µM.
In series [2], `C=CCc1cc(OC)c(OCc2ccc(OC)cc2)c(Oc2ccccc2OC)c1` [Compound 17] showed a CC50 at 48 h greater than 200 µM.
Molecule `C=CCc1ccc(Oc2cc(CCC)cc(OC)c2OCc2ccc(OC)cc2)c(OC)c1` [Compound 18] displayed a 50% cytotoxic concentration (CC50) at 48 h in series [2] greater than 200 µM. For the same molecule, in series [3], the “SI (selectivity index)” value is given as greater than 14.9. Moreover, the IC50 in the series on T. cruzi amastigotes [4] came out at 13.4 ± 5.4 µM.
As for `C=CCc1ccc(Oc2cc(CCC)cc(OC)c2O)c(OC)c1` [Compound 19], the figures for the IC50 (in series [1]; in the series on T. cruzi amastigotes [4]) were 4.6 ± 3.8 µM and 10.5 ± 8.3 µM, respectively. Further, half-maximal cytotoxicity in series [2] (CC50 at 48 h) was put at 14.2 ± 0.1 µM. The “CC50 (μM) ± SD” value in series [3] is recorded as “significant mammalian toxicity”. In addition, the “SI (selectivity index)” value in series [3] is reported as 1.3.
For `C=CCc1ccc(Oc2cccc(OC)c2OC)c(OC)c1` [Compound 20], the IC50 in series [1] came out at 63.1 ± 6.2 µM; in the series on T. cruzi amastigotes [4], 25.7 ± 12.2 µM. This molecule also returned a CC50 at 48 h in series [2] greater than 200 µM. For the same molecule, the “SI (selectivity index)” value in series [3] is greater than 7.8.
`C=CCc1ccc(Oc2cccc(OC)c2OCc2ccc(OC)cc2)c(OC)c1` [Compound 21] showed a cytotoxic concentration (CC50) at 48 h in series [2] greater than 200 µM.
On the same count and under the same terms, the figure for `C=CCOc1c(OC)cccc1Oc1ccc(CC=C)cc1OC` [Compound 22] is greater than 200 µM.
Take `C=CCc1ccc(O)c(Oc2ccc(CC=C)cc2OC)c1` [Compound 23]: the results for the IC50 (in series [1]; with T. cruzi amastigotes [4]) were 2.5 ± 1.3 µM and 7.7 ± 1.3 µM, respectively. This molecule also came in with a CC50 at 48 h in series [2] of 129 ± 5.2 µM. Also, in series [3], the “SI (selectivity index)” value worked out at 16.7.
For the molecule `C=CCc1ccc(Oc2cc(CC=C)ccc2OCc2ccc(OC)cc2)c(OC)c1` [Compound 24], the CC50 at 48 h in series [2] was greater than 200 µM. Also, in series [3], the “SI (selectivity index)” value is listed as greater than 17.2. In addition, the IC50 in the series on T. cruzi amastigotes [4] worked out at 11.6 ± 8.4 µM.
For `C=CCc1cc(OC)cc(Oc2ccc(CC=C)cc2OC)c1` [Compound 25] the same measures were greater than 200 µM, greater than 18.3 and 10.9 ± 6.5 µM.
Regarding `O=C(Cn1ccnc1[N+](=O)[O-])NCc1ccccc1` [benznidazole, reference compound], the 50% inhibitory concentration (IC50) in series [1] worked out at 17.7 ± 1.9 µM; in the series with T. cruzi amastigotes [4], 5 ± 1.5 µM. This molecule also showed a CC50 at 48 h in series [2] of 191 ± 13.4 µM. In series [3], the “SI (selectivity index)” value turned out to be 38.1.
